Test system: LDL-r promoter and the luciferase reporter gene in HepG2 cells
Assay: In vitro assay: induction of luciferase activity in HepG2 cells stably transfected with LDL-r promoter/luciferase reporter construct
Type: cell-based
Conditions: Homo sapiens, 24 hours incubation, RPMI medium with 2% lipoprotein-deficient serum, tested 10^-6M to 10^-9M
Protocol: HepG2 cells, stably transfected with a construct comprising the LDL-r promoter and the luciferase reporter gene, were seeded at 50,000 cells/well in 96 well plates. After 1 day cells were incubated with compounds for 24 hours in RPMI medium containing 2% of lipoprotein-deficient serum. Compounds were tested from 10^−6M to 10^−9M. Cell lysates were prepared and the luciferase activity was measured by the luciferase assay system (Promega). Induction of luciferase activity was calculated taking untreated cells as control. The ED50 of each compounds was determined compared to the ED50 of an internal standard.

| EC50 [nM] | SMILES |
| --- | --- |
| 7 | Cn1cc(C2CCN(CCCCNC(=O)c3ccc(-c4ccc(C(F)(F)F)cc4)c(CO)c3)CC2)c2ccccc21 [Example 1] |
| 10 | COc1c(C2CCN(CCCCNC(=O)c3ccc(-c4ccc(Cl)cn4)cc3)CC2)ccc2c1CCCC2 [Example 32, 4-(5-Chloro-pyridin-2-yl)-N-{4-[4-(1-methoxy-5,6,7,8-tetrahydro-naphthalen-2-yl)-piperidin-1-yl]-butyl}-benzamide] |

Test system: not given
Assay: not given
Conditions: not given

| SMILES | melting point [°C] |
| --- | --- |
| CCOc1cc(CC)ccc1C1CCN(CCCCNC(=O)c2sc(-c3ccc(C(F)(F)F)cc3)nc2CO)CC1 [Example 4, 4-Hydroxymethyl-2-(4-trifluoromethyl-phenyl)-thiazole-5-carboxylic acid {4-[4-(2-ethoxy-4-ethyl-phenyl)-piperidin-1-yl]-butyl}-amide] | 150 |
| COc1c(C2CCN(CCCCNC(=O)c3sc(-c4ccc(C#N)cc4)nc3CO)CC2)ccc2c1CCCC2 [Example 7, 2-(4-Cyano-phenyl)-hydroxymethyl-thiazole-5-carboxylic acid {4-[4-(1-methoxy-5,6,7,8-tetrahydro-naphthalen-2-yl)-piperidin-1-yl]-butyl}-amide] | 212 |
| COc1c(C2CCN(CCCCNC(=O)c3sc(-c4ccc(Cl)cc4)nc3C)CC2)ccc2c1CCCC2 [Example 12, 2-(4-Chloro-phenyl)4-methyl-thiazole-5-carboxylic acid {4-[4-(1-methoxy-5,6,7,8-tetrahydro-naphthalen-2-yl)-piperidin-1-yl]-butyl}-amide] | 151 |
| COc1c(C2CCN(CCCCNC(=O)c3[nH]nc(-c4ccc(C#N)cc4)c3CO)CC2)ccc2c1CCCC2 [Example 14] | 185 to 186 |
| COc1c(C2CCN(CCCCNC(=O)c3oc(-c4ccc(C#N)cc4)nc3C)CC2)ccc2c1CCCC2 [Example 15, 2-(4-Cyano-phenyl)-4-methyl-oxazole-5-carboxylic acid {4-[4-(1-methoxy-5,6,7,8-tetrahydro-naphthalen-2-yl)-piperidin-1-yl]-butyl}amide] | 157 |
| COc1c(C2CCN(CCCCNC(=O)c3oc(-c4ccc(C#N)cc4)nc3CO)CC2)ccc2c1CCCC2 [Example 16, 2-(4-Cyano-phenyl)-4-hydroxymethyl-oxazole-5-carboxylic acid {4-[4-(1-methoxy-5,6,7,8-tetrahydro-naphthalen-2-yl)-piperidin-1-yl]-butyl}-amide] | 160 to 162 |
| COc1c(C2CCN(CCCCNC(=O)c3ccc(-c4ccc(C(=O)N(C)C)cc4)cc3)CC2)ccc2c1CCCC2 [Example 19] | 170 |
| COc1c(C2CCN(CCCCNC(=O)c3ccc(-c4ccc(C(C)=O)s4)cc3)CC2)ccc2c1CCCC2 [Example 20, 4-(5-Acetyl-thiophen-2-yl)-N-{4-[4-(1-methoxy-5,6,7,8-tetrahydro-naphthalen-2-yl)-piperidin-1-yl]-butyl}-benzamide] | 216 to 218 |
| COc1c(C2CCN(CCCCNC(=O)c3ccc(-c4ccc(NS(=O)(=O)CC(F)(F)F)cc4)cc3)CC2)ccc2c1CCCC2 [Example 22, 4′-(2,2,2-Trifluoro-ethanesulfonylamino)-biphenyl4-carboxylic acid {4-[4-(1-methoxy 5,6,7,8-tetrahydro-naphthalen-2-yl)-piperidin-1-yl]-butyl}-amide] | 182 to 184 |
| COc1c(C2CCN(CCCCNC(=O)c3ccc(-c4ccc(Cl)s4)cc3)CC2)ccc2c1CCCC2 [Example 23, 4-(5-Chloro-thiophen-2-yl)-N-{4-[4-(1-methoxy-5,6,7,8-tetrahydro-naphthalen-2-yl)-piperidin-1-yl]-butyl}-benzamide] | 185 to 187 |
| COc1c(C2CCN(CCCCNC(=O)c3ccc(-c4ccc(NS(=O)(=O)C(C)C)cc4)cc3)CC2)ccc2c1CCCC2 [Example 24] | 188 to 190 |
| COc1c(C2CCN(CCCCNC(=O)c3ccc(-c4ccc(Cl)cc4)c(O)c3)CC2)ccc2c1CCCC2 [Example 25] | 199 |
| COc1c(C2CCN(CCCCNC(=O)c3ccc(-c4ccc(C(=O)C(F)(F)F)cc4)cc3)CC2)ccc2c1CCCC2 [Example 26, 4′-(2,2,2-Trifluoro-acetyl)-biphenyl-4-carboxylic acid {4-[4-(1-methoxy-5,6,7,8-tetrahydro-naphthalen-2-yl)-piperidin-1-yl]-butyl}-amide] | 197 to 199 |
| COc1c(C2CCN(CCCCNC(=O)c3ccc(-c4ccc(NC(=O)C(F)(F)F)cc4)cc3)CC2)ccc2c1CCCC2 [Example 29, 4′-(2,2,2-Trifluoro-acetylamino)-biphenyl-4-carboxylic acid {4-[4-(1-methoxy-5,6,7,8-tetrahydro-naphthalen-2-yl)-piperidin-1-yl]-butyl}-amide] | 226 to 228 |
| COc1c(C2CCN(CCCCNC(=O)c3ccc(-c4ccc(C#N)cn4)cc3)CC2)ccc2c1CCCC2 [Example 30, 4-(5-Cyano-pyridin-2-yl)-N-{4-[4-(1-methoxy-5,6,7,8-tetrahydro-naphthalen-2-yl)-piperidin-1-yl]-butyl}-benzamide] | 220 to 222 |
| COc1c(C2CCN(CCCCNC(=O)c3ccc(-c4ccsc4C#N)cc3)CC2)ccc2c1CCCC2 [Example 31, 4-(2-Cyano-thiophen-3-yl)-N-{4-[4-(1-methoxy-5,6,7,8-tetrahydro-naphthalen-2-yl)-piperidin-1-yl]-butyl}-benzamide] | 236 to 238 |
| COc1c(C2CCN(CCCCNC(=O)c3ccc(-c4ccc(Cl)cn4)cc3)CC2)ccc2c1CCCC2 [Example 32, 4-(5-Chloro-pyridin-2-yl)-N-{4-[4-(1-methoxy-5,6,7,8-tetrahydro-naphthalen-2-yl)-piperidin-1-yl]-butyl}-benzamide] | 213 to 215 |
| COc1c(C2CCN(CCCCNC(=O)c3ccc(-c4csc(C(C)=O)c4)cc3)CC2)ccc2c1CCCC2 [Example 33, 4-(5-Acetyl-thiophen-3-yl)-N-{4-[4-(1-methoxy-5,6,7,8-tetrahydro-naphthalen-2-yl)-piperidin-1-yl]-butyl}-benzamide] | 208 to 210 |

The next lines start with the values.

| melting point [°C] | SMILES |
| --- | --- |
| 202 to 204 | COc1c(C2CCN(CCCCNC(=O)c3ccc(-c4ccc(Cl)nc4)cc3)CC2)ccc2c1CCCC2 [Example 34] |
| 192 to 194 | COc1c(C2CCN(CCCCNC(=O)c3ccc(-c4ccc(Cl)nn4)cc3)CC2)ccc2c1CCCC2 [Example 35, 4-(6-Chloro-pyridazin-3-yl)-N-{4-[4-(1-methoxy-5,6,7,8-tetrahydro-naphthalen-2-yl)-piperidin-1-yl]-butyl}-benzamide] |
| 180 to 182 | COc1c(C2CCN(CCCCNC(=O)c3ccc(-c4ccc(C#N)o4)cc3)CC2)ccc2c1CCCC2 [Example 36] |
| 103 to 105 | COc1c(C2CCN(CCCCNC(=O)c3ccc(-c4ccc(Cl)cc4)cn3)CC2)ccc2c1CCCC2 [Example 37, 5-(4-Chloro-phenyl)-pyridine-2-carboxylic acid {4-[4-(1-methoxy-5,6,7,8-tetrahydro-naphthalen-2-yl)piperidin-1-yl]-butyl}-amide] |
| 184 to 186 | COc1c(C2CCN(CCCCNC(=O)c3ccc(-c4ccc(Cl)cc4)nc3)CC2)ccc2c1CCCC2 [Example 38, 6-(4-Chloro-phenyl)-N-{4-[4-(1-methoxy-5,6,7,8-tetrahydro-naphthalen-2-yl)-piperidin-1-yl]-butyl}-nicotinamide] |
| 166 to 168 | COc1c(C2CCN(CCCCNC(=O)c3ccc(-c4ccc(C#N)cc4)nc3)CC2)ccc2c1CCCC2 [Example 39, 6-(4-Cyano-phenyl)-N-{4-[4-(1-methoxy-5,6,7,8-tetrahydro-naphthalen-2-yl)-piperidin-1-yl]-butyl}-nicotinamide] |
| 175 to 177 | COc1c(C2CCN(CCCCNC(=O)c3ccc(-c4ccc(Cl)s4)nc3)CC2)ccc2c1CCCC2 [Example 40, 6-(5-Chloro-thiophen-2-yl)-N-{4-[4-(1-methoxy-5,6,7,8-tetrahydro-naphthalen-2-yl)-piperidin-1-yl]-butyl}-nicotinamide] |
| 140 | COc1c(C2CCN(CCCCNC(=O)c3ccc(-c4ccc(C#N)cc4)cn3)CC2)ccc2c1CCCC2 [Example 41, 5-(4-Cyano-phenyl)-pyridine-2-carboxylic acid {4-[4-(1-methoxy-5,6,7,8-tetrahydro-naphthalen-2-yl)-piperidin-1-yl]-butyl}-amide] |
| 186 to 188 | COc1c(C2CCN(CCCCNC(=O)c3ccc(-c4ccc(C#N)s4)nc3)CC2)ccc2c1CCCC2 [Example 42, 6-(5-Cyano-thiophen-2-yl)-N-{4-[4-(1-methoxy-5,6,7,8-tetrahydro-naphthalen-2-yl)-piperidin-1-yl]-butyl}-nicotinamide] |
| 179 to 181 | COc1c(C2CCN(CCCCNC(=O)c3ccc(-c4ccc(C#N)nc4)cc3)CC2)ccc2c1CCCC2 [Example 43, 4-(6-Cyano-pyridin-3-yl)-N-{4-[4-(1-methoxy-5,6,7,8-tetrahydro-naphthalen-2-yl)-piperidin-1-yl]-butyl}-benzamide] |
| 202 | COc1c(C2CCN(CCCCNC(=O)c3ccc(-c4cnc(C#N)nc4)cc3)CC2)ccc2c1CCCC2 [Example 44, 4-(2-Cyano-pyrimidin-5-yl)-N-{4-[4-(1-methoxy-5,6,7,8-tetrahydro-naphthalen-2-yl)-piperidin-1-yl]-butyl}-benzamide] |

Source: patent publication US20060052384A1, “Aryl piperidine derivatives as inducers of ldl-receptor expression for the treatment of hypercholesterolemia” (priority 2002, published 2006)
